How the values were obtained:
HTB-125 cell line = test: Selectivity index against HTB-125; assay type: cell-based; conditions: SI = CC50/IC50
H460 cells = test: Cell cycle PI staining FACS, H460; assay type: cell-based, human; conditions: H460, 0.5, 1.0, 1.5 μM, 24 h
From the text: TS is a crucial enzyme in the DNA synthesis stage. When it is inhibited, first to show cell cycle arrest at G1/S phase. […] Flow cytometry show (Fig. 3), as the concentration of the compound increases, the cells in the G0/G1 phase increase, the cells in the S phase and the G2/M phase decrease. Eventually, the proliferation of cancer cells was inhibited by the G1/S phase arrest of the compound L14e.

A549 cells = test: Transwell migration and wound healing, A549; assay type: cell-based, human; conditions: A549, 0.5, 1.0, 1.5 μM, 24 h
Method: Cell migration ability was measured using transwell chambers (8-μm pore size; Corning Costar, Cambridge, MA, USA). For the transwell assay, A549 and H460 cells suspended in serum-free RPMI-1640 medium containing different concentrations of L14e (0, 0.5, 1.0, and 1.5 μM) were seeded into the upper chamber. The lower chamber contained RPMI-1640 medium supplemented with 20% serum. After 24 h incubation, the filters were fixed in methanol and stained with 0.1% crystal violet. The upper faces of the filters were gently abraded, and the lower faces with cells migrated across the filters were imaged and counted under the microscope. For wound healing assays, cells were placed into 6-well plates and cultured until 100% confluence. An artificial scratch was created using a 200 μL pipette tip. Add serum-free RPMI-1640 medium containing different concentrations of drugs. At 24 h after culturing in serum-free medium, wound closure images were captured in the same field under magnification. Cell healing rates were calculated by the fraction of cell coverage across the line. These experiments were performed in triplicate and repeated three times.

[1] = HPLC analysis of stability in cell culture medium; assay type: physicochemical
Method: The HPLC system consisted of e2695 Separations Module pump coupled to a 2489 UV/Visible detector (Waters Corp., Milford, MA, USA). Chromatograms was achieved on a Waters BDS C18 column (200 mm × 4.6 mm, 5 um). Detection was performed at a wavelength of 260 nm at 37 °C. The mobile phase consisted of 0.1% phosphoric acid water /methanol (50/50, v/v) at a flow rate of 1.0 mL/min. A10 µL of sample was injected. The results are loaded in the supplemental file.

What does the source list for `O=C(Nc1cccc(Cl)c1)Nc1ccccc1NS(=O)(=O)c1c[nH]c(=O)[nH]c1=O` [Compound L14e, N'-(3-chlorophenyl)-2-(2,4-dihydroxypyrimidine-5-sulfonamido)phenyl urea]?
SI (Selectivity index) HTB-125 (HTB-125 cell line): 10.39; effect on cell cycle (H460 cells): arrest the cell cycle in the G1/S phase; effect on cell migration (A549 cells): significantly inhibited the migration; HPLC-UV Measure Concentration ([1]; nominal 0.625 µM, 1h): 0.621 ± 0.005 µM; HPLC-UV Measure Concentration ([1]; nominal 0.625 µM, 12h): 0.623 ± 0.001 µM; HPLC-UV Measure Concentration ([1]; nominal 0.625 µM, 24h): 0.625 ± 0.002 µM; HPLC-UV Measure Concentration ([1]; nominal 0.625 µM, 36h): 0.625 ± 0.001 µM; HPLC-UV Measure Concentration ([1]; nominal 1.25 µM, 1h): 1.246 ± 0.005 µM; HPLC-UV Measure Concentration ([1]; nominal 1.25 µM, 12h): 1.239 ± 0.003 µM; HPLC-UV Measure Concentration ([1]; nominal 1.25 µM, 24h): 1.253 ± 0.007 µM; HPLC-UV Measure Concentration ([1]; nominal 1.25 µM, 36h): 1.242 ± 0.009 µM; HPLC-UV Measure Concentration ([1]; nominal 2.5 µM, 1h): 2.510 ± 0.020 µM; HPLC-UV Measure Concentration ([1]; nominal 2.5 µM, 12h): 2.506 ± 0.021 µM; HPLC-UV Measure Concentration ([1]; nominal 2.5 µM, 24h): 2.430 ± 0.002 µM; HPLC-UV Measure Concentration ([1]; nominal 2.5 µM, 36h): 2.483 ± 0.050 µM; HPLC-UV Measure Concentration ([1]; nominal 5 µM, 1h): 5.001 ± 0.010 µM; HPLC-UV Measure Concentration ([1]; nominal 5 µM, 12h): 4.963 ± 0.005 µM; HPLC-UV Measure Concentration ([1]; nominal 5 µM, 24h): 5.012 ± 0.023 µM; HPLC-UV Measure Concentration ([1]; nominal 5 µM, 36h): 4.980 ± 0.020 µM; HPLC-UV Measure Concentration ([1]; nominal 10 µM, 1h): 10.000 ± 0.049 µM; HPLC-UV Measure Concentration ([1]; nominal 10 µM, 12h): 9.908 ± 0.100 µM; HPLC-UV Measure Concentration ([1]; nominal 10 µM, 24h): 9.930 ± 0.100 µM; HPLC-UV Measure Concentration ([1]; nominal 10 µM, 36h): 9.850 ± 0.150 µM

Reference: PMC6624297 (Cell Death & Disease, 2019)
